From patent US11884708B2, “Stapled peptide inhibitors of nemo as potential anti-inflammatory and anti-cancer drugs” (INSTITUT PASTEUR, priority 2015, dated 2024)
Where a SMILES comes first, the peptide text is derived from it. Bridges are numbered along the chain shown (N, C = ends). [ ]: non-standard residue; d: D form. The star is where a group is joined. Succinimide(1-Et,3-yl) = CCN1C(=O)CC(*)C1=O; R8 = C=CCCCCCC[C@@](C)(N)C(=O)O; S5 = C=CCCC[C@](C)(N)C(=O)O; code Z = not defined here; Cbz = O=C(OCc1ccccc1)*; Aib = CC(C)(N)C(=O)O; CH2F = FC*

Experiments:
[1] = circular dichroism; details: 10 mM sodium phosphate; pH 7; 1 °C; 50 uM
[2] = tested on: 70Z3-C3 cells; assay: Cellular uptake of BODIPY-labeled peptides by FACS; type: cell-based; details: 2 h incubation, flow cytometry
[3] = tested on: HLY1 (ABC-DLBCL, MALT1 independent); assay: Cell death assay (CellTiter-Blue resazurin); type: cell-based, human; details: for cell death: HLY1, 7 h; for EC50: Homo sapiens
Method: (§1) The CellTiter-Blue® Cell Viability kit assay purchased from Promega was used to assess the cell death induced by NEMO stapled peptides in ABC- and GCB-DLBCL cell lines. […] Cells were considered 100% death when the fluorescence intensity value was the same as the one with the medium alone or with the cells treated with the cycloheximide protein synthesis inhibitor at 25 μM (Sigma Aldrich).
(§2) For each time point measurement 100 μl of cell samples were withdrawn at different incubation times (7 h, 24 h and 48 h) and subjected to resazurin assay for one hour at 37° C. in the CO2 incubator by adding and mixing for 10 sec 20 μl of resazurin. Fluorescence measurements were performed with a TECAN infinite F500 instrument at 560 nm excitation wavelength and 590 nm emission wavelength. Viability of cells at time 0 was determined just before adding compound and all experiments were performed in duplicate.
(§3) The percentage of cell death was calculated according to the following formula: (1−((RFUobs−blank)/(RFU100% viability−blank))*100), where RFUobs corresponds to the cells viability observed in the presence of compound, RFU100% viability, the initial cells viability and blank the background fluorescence measured using the medium alone.
(§4) The EC50 value was calculated by plotting the percentage of cell death as function of the compound concentration and fitting the experimental curve with the following formula: (A*P0)/(EC50+P0), where A is the amplitude of fluorescence, P0 is the peptide concentration.
(§5) To compare the inhibition efficiency of BA-UBI-SAHND306-Q313 with IKK inhibitors (MLN120B, MedChem Express) or IKKα/β inhibitor (TPCA1, R&D systems), 25,000 DLBCL cells (OCI-Ly3) were incubated for 7 h with an increasing concentration of IKK inhibitors ranging from 0 to 50 μM, and the amount of cell death was then determined using CellTiter-Blue® Cell Viability kit assay. For the MI-2 MALT1 inhibitor (Fontan et al., 2012, Cancer cell 22, 812-824), similar experiments were carried out in MALT dependent (OCI-Ly3) and independent (HLY1) DLBCL cells using a 0-25 μM range.

[4] = tested on: OCI-Ly3 (ABC-DLBCL, MALT1 dependent); assay: Cell death assay (CellTiter-Blue resazurin); type: cell-based, human
Method: as §1, §2, §3, §4, §5

[5] = tested on: OCI-Ly7 (GCB-DLBCL); assay: Cell death assay (CellTiter-Blue resazurin); type: cell-based, human; details: OCY-Ly7, no constitutive NF-κB activation
Method: as §1, §2
as §3, with “alone. […]” for “alone.”

[6] = tested on: OCI-Ly3 DLBCL cells; assay: Protection from cell death induced by NEMO stapled inhibitor by apoptosis and necroptosis inhibitors; type: cell-based, human; details: OCY-Ly3 pre-treated with inhibitor, then A-UBI-SAHND306-Q313
Method: Ferrostatin-1, an inhibitor of ferroptosis (Sigma Aldrich) was used at 25 μM, the mixture of pepstatin-A and E64D (Sigma Aldrich), inhibitors of lysosomal cathepin D and cathepsin B, respectively, at 25 μM each and Cyclosporin A (Sigma Aldrich), a CypD inhibitor, at 25 μM. In all experiments, the effect of different DMSO concentration on cell viability was measured and taken into account, and fluorescence background was measured using cell free medium containing inhibitors.

Q: For `CC[C@H](C)[C@@H]1NC(=O)[C@@](C)(NC(=O)[C@H](C)NC(=O)[C@H](CCC(N)=O)NC(=O)[C@H](C)NC(=O)[C@H](CCCCN)NC(=O)[C@H](CC(C)C)NC(=O)[C@H](CSC2CC(=O)N(CC)C2=O)NC(C)=O)CCCC=CCCC[C@@](C)(C(=O)N[C@@H](CCCNC(=N)N)C(=O)N[C@@H](Cc2ccccc2)C(=O)N[C@@H](CCC(N)=O)C(=O)N[C@@H](C)C(=O)N[C@@H](CCC(=O)O)C(=O)N[C@@H](CCCNC(=N)N)C(=O)N[C@@H](Cc2c[nH]cn2)C(=O)N[C@@H](C)C(=O)N[C@@H](CCCNC(=N)N)C(=O)N[C@@H](CCC(=O)O)C(=O)N[C@@H](CCCCN)C(N)=O)NC(=O)[C@H](CCCCN)NC(=O)[C@H](Cc2ccc(O)cc2)NC1=O` (stereo partly shown) (Ac-C(Succinimide(1-Et,3-yl))LKAQA[S5]IYK[S5]RFQAERHAREK-NH2; staple 7-11), which helicity [1] is on record?
A: Its helicity is 65 rel %.

Q: With `CC[C@H](C)[C@H](NC(=O)[C@H](CC(=O)O)NC(=O)C(C)(C)NC(=O)[C@H](CCC(N)=O)NC(=O)C(C)(C)NC(=O)[C@H](CCCCN)NC(=O)[C@H](CC(C)C)NC(=O)[C@H](CSC1CC(=O)N(CC)C1=O)NC(C)=O)C(=O)N[C@@H](Cc1ccc(O)cc1)C(=O)N[C@@H](CCCCN)C(=O)NC(C)(C)C(=O)N[C@@H](CCCNC(=N)N)C(=O)N[C@@H](Cc1ccccc1)C(=O)N[C@@H](CCC(N)=O)C(=O)NC(C)(C)C(=O)N[C@@H](CCC(=O)O)C(=O)N[C@@H](CCCNC(=N)N)C(=O)N[C@@H](Cc1c[nH]cn1)C(=O)NC(C)(C)C(=O)N[C@@H](CCCNC(=N)N)C(=O)N[C@@H](CCC(=O)O)C(=O)N[C@@H](CCCCN)C(N)=O` (stereo partly shown) (Ac-C(Succinimide(1-Et,3-yl))LK[Aib]Q[Aib]DIYK[Aib]RFQ[Aib]ERH[Aib]REK-NH2) as the compound, how does the helicity [1] read?
A: Its helicity is 49 rel %.

Q: Which helicity [1] does the source give for `CC[C@H](C)[C@@H]1NC(=O)[C@H](CC(=O)O)NC(=O)[C@H](C)NC(=O)[C@H](CCC(N)=O)NC(=O)[C@](C)(NC(=O)[C@H](CCCCN)NC(=O)[C@H](CC(C)C)NC(=O)[C@H](CSC2CC(=O)N(CC)C2=O)NC(C)=O)CCCCCC/C=C/CCC[C@@](C)(C(=O)N[C@@H](CCCNC(=N)N)C(=O)N[C@@H](Cc2ccccc2)C(=O)N[C@@H](CCC(N)=O)C(=O)N[C@@H](C)C(=O)N[C@@H](CCC(=O)O)C(=O)N[C@@H](CCCNC(=N)N)C(=O)N[C@@H](Cc2c[nH]cn2)C(=O)N[C@@H](C)C(=O)N[C@@H](CCCNC(=N)N)C(=O)N[C@@H](CCC(=O)O)C(=O)N[C@@H](CCCCN)C(N)=O)NC(=O)[C@H](CCCCN)NC(=O)[C@H](Cc2ccc(O)cc2)NC1=O` (stereo partly shown) (Ac-C(Succinimide(1-Et,3-yl))LK[R8]QADIYK[S5]RFQAERHAREK-NH2; staple (E) 4-11) here?
A: Its helicity is 80 rel %.

Q: With `CC[C@H](C)[C@@H]1NC(=O)[C@H](CC(=O)O)NC(=O)[C@H](C)NC(=O)[C@H](CCC(N)=O)NC(=O)[C@](C)(NC(=O)[C@H](CCCCN)NC(=O)[C@H](CC(C)C)NC(=O)[C@H](CSC2CC(=O)N(CC)C2=O)NC(C)=O)CCCCCC/C=C\CCC[C@@](C)(C(=O)N[C@@H](CCCNC(=N)N)C(=O)N[C@@H](Cc2ccccc2)C(=O)N[C@@H](CCC(N)=O)C(=O)N[C@@H](C)C(=O)N[C@@H](CCC(=O)O)C(=O)N[C@@H](CCCNC(=N)N)C(=O)N[C@@H](Cc2c[nH]cn2)C(=O)N[C@@H](C)C(=O)N[C@@H](CCCNC(=N)N)C(=O)N[C@@H](CCC(=O)O)C(=O)N[C@@H](CCCCN)C(N)=O)NC(=O)[C@H](CCCCN)NC(=O)[C@H](Cc2ccc(O)cc2)NC1=O` (stereo partly shown) (Ac-C(Succinimide(1-Et,3-yl))LK[R8]QADIYK[S5]RFQAERHAREK-NH2; staple (Z) 4-11) as the compound, how does the helicity [1] read?
A: The helicity was 63 rel %.

Q: With `CCN1C(=O)CC(SC[C@H](NC(C)=O)C(=O)N[C@@H](CC(C)C)C(=O)N[C@@H](CCCCN)C(=O)N[C@@]2(C)CCCC=CCCC[C@@](C)(C(=O)N[C@@H](Cc3ccc(O)cc3)C(=O)N[C@@H](CCCCN)C(=O)N[C@@H](C)C(=O)N[C@@H](CCCNC(=N)N)C(=O)N[C@@H](Cc3ccccc3)C(=O)N[C@@H](CCC(N)=O)C(=O)N[C@@H](C)C(=O)N[C@@H](CCC(=O)O)C(=O)N[C@@H](CCCNC(=N)N)C(=O)N[C@@H](Cc3c[nH]cn3)C(=O)N[C@@H](C)C(=O)N[C@@H](CCCNC(=N)N)C(=O)N[C@@H](CCC(=O)O)C(=O)N[C@@H](CCCCN)C(N)=O)NC(=O)[C@H](CC(=O)O)NC(=O)[C@H](C)NC(=O)[C@H](CCC(N)=O)NC2=O)C1=O` (stereo partly shown) (Ac-C(Succinimide(1-Et,3-yl))LK[S5]QAD[S5]YKARFQAERHAREK-NH2; staple 4-8) as the compound, how does the helicity [1] read?
A: The helicity was 70 rel %.

Q: Which results are given for `CC[C@H](C)[C@H](NC(=O)[C@H](CCCCN)NC(=O)[C@@H](NC(=O)[C@H](CCC(N)=O)NC(=O)[C@H](CCCNC(=N)N)NC(=O)[C@H](CSC1CC(=O)N(CC)C1=O)NC(C)=O)[C@@H](C)CC)C(=O)N[C@@H](Cc1c[nH]c2ccccc12)C(=O)N[C@@H](Cc1ccccc1)C(=O)N[C@@H](CCC(N)=O)C(=O)N[C@@H](CC(N)=O)C(=O)N[C@@H](CCCNC(=N)N)C(=O)N[C@@H](CCCNC(=N)N)C(=O)N[C@@H](CCSC)C(=O)N[C@@H](CCCCN)C(=O)N[C@@H](Cc1c[nH]c2ccccc12)C(=O)N[C@@H](CCCCN)C(=O)N[C@@H](CCCCN)C(=O)N[C@@H](CC(C)C)C(=O)N[C@@H](CCCCN)C(=O)N[C@@H](C)C(=O)N[C@@H](CCC(N)=O)C(=O)N[C@@H](C)C(=O)N[C@]1(C)CCCCCCC=CCCC[C@@](C)(C(=O)N[C@@H](C)C(=O)N[C@@H](CCC(=O)O)C(=O)N[C@@H](CCCNC(=N)N)C(=O)N[C@@H](Cc2c[nH]cn2)C(=O)N[C@@H](C)C(=O)N[C@@H](CCCNC(=N)N)C(=O)N[C@@H](CCC(=O)O)C(=O)N[C@@H](CCCCN)C(N)=O)NC(=O)[C@H](Cc2ccccc2)NC(=O)[C@H](CCCNC(=N)N)NC(=O)[C@H](C)NC(=O)[C@H](CCCCN)NC(=O)[C@H](Cc2ccc(O)cc2)NC(=O)[C@H]([C@@H](C)CC)NC1=O` (stereo partly shown) [A-UBI-SAHN D306-Q313] (Ac-C(Succinimide(1-Et,3-yl))RQIKIWFQNRRMKWKKLKAQA[R8]IYKARF[S5]AERHAREK-NH2; staple 23-30)?
A: intracellular delivery at 4° C. lower than at 37° C. [2]: 58%; more potent than ML120B ([3]; HLY1): 70 ×; cell death [3]: 100%; times more potent than ML120B IKKβ inhibitor ([4]; OCI-Ly3): about 50 times; EC50 ([4]; OCI-Ly3, 7 h): 2.6 ± 0.5 µM; cell death ([4]; OCI-Ly3, 7 h): 100%; cell death, in words [5]: no cell death

Q: For `CC(C)S(=O)(=O)c1ccc2nccc(Nc3ccc4scnc4c3)c2c1` [GSK872], which “protection to cell death induced by NEMO stapled inhibitor, in words” value [6] is on record?
A: Its value is “significantly rescued”.

Q: For `COCCOc1nc(-c2ccc(Cl)c(Cl)c2)n(-c2ccc(NC(=O)CCl)cc2)n1` [MI-2], which cell death [3] is on record?
A: Its cell death is “more resistant”.

Q: What about the EC50 ([4]; OCI-Ly3, 7 h) of the same compound?
A: Its EC50 is 2.5 ± 0.05 µM.

Q: For `COc1c(Cl)cc2c([nH]c3cnccc32)c1NC(=O)c1cccnc1C` [MLN120B], which cell death [3] is on record?
A: The cell death was “No cell death”.

Q: What about the EC50 ([3]; HLY1, 24 h) of the same compound?
A: Its EC50 is 70 ± 2 µM.

Q: And the EC50 ([3]; HLY1, 48 h)?
A: Its EC50 is 78 ± 2 µM.

Q: What about the EC50 ([4]; Homo sapiens, OCI-Ly3, 48 h) of the same compound?
A: The EC50 was 125 ± 10 µM.

Q: And the cell death ([4]; OCI-Ly3, 48 h)?
A: The cell death was 52%.

Q: With `COc1nccnc1NS(=O)(=O)c1ccc(NC(=O)/C=C/c2ccc([N+](=O)[O-])s2)cc1` [NSA, necrosulfonamide] as the compound, how does the “protection to cell death induced by NEMO stapled inhibitor, in words” value [6] read?
A: The value was “significantly rescued”.

Q: For `CN1C(=O)C(Cc2c[nH]c3ccccc23)NC1=S` (stereo not shown) [Nec1, necrostatin-1], which “protection to cell death induced by NEMO stapled inhibitor, in words” value [6] is on record?
A: Its value is “totally prevent”.

Q: Which “protection to cell death induced by NEMO stapled inhibitor, in words” value [6] does the source give for `COC(=O)C[C@H](NC(=O)[C@H](C)NC(=O)[C@@H](NC(=O)OCc1ccccc1)C(C)C)C(=O)CF` [Z-VAD-fmk] (Cbz-Val-Ala-Asp(OMe)-CH2F) here?
A: Its value is “did not provide any protection”.

Q: For “Z-Val-Arg-Pro-Arg-fluoromethylketone ({code Z}-VRPR-CH2F; reading uncertain; also: printed as Z-Val-Arg-Pro-Arg-fluoromethylketone) [Z-VRPR-fmk]”, which “cell death, in words” value ([3]; HLY1, for at least 48 h) is on record?
A: Its value is “did not induce any cell death”.

Q: What about the cell death ([4]; OCI-Ly3, 48 h) of the same compound?
A: The cell death was “very little cell death”.
